These results are taken from PubChem BioAssay (NCI).

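Protocol summary: plate cells (96-well), add compound at 5 concentrations, incubate 48 h, interpolate endpoints linearly. The concentration for 50% growth inhibition is given as GI50. TGI: concentration producing complete growth inhibition.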 Starred links: 1 amine or outer side, 2 acyl side, 3 side chain; linkers in the order of their positions; H or OH if unused. Positions of bridges follow the written chain, without caps; N, C: chain ends. Non-standard residues stand in square brackets, D forms with d. Residues, ends and D or L forms follow the SMILES beside them. Chains are numbered I, II in the order given. Actinocin(1to9) = Cc1c2oc3c(C)ccc(C(=O)[*:2])c3nc-2c(C(=O)[*:1])c(N)c1=O; NMeV = CN[CH](C(=O)O)C(C)C; Sar = CNCC(=O)O

By TGI is commonly meant the concentration giving total growth inhibition. Usually GI50 stands for the concentration that inhibits growth by half.

Test systems include ACHN renal; CAKI-1 renal; COLO 205 colon; M14 melanoma; NCI-H23 lung; RPMI-8226 leukemia; SF-268 CNS; SF-295 CNS; TK-10 renal; U251 CNS.
What all share (assay): DTP human tumour cell line panel, 48 h

Take `O=c1[nH]c(Nc2ccc(Cl)c(C(F)(F)F)c2)nc2nc[nH]c12`: the TGI in the assay on ACHN renal, in the assay on CAKI-1 renal, in the assay on COLO 205 colon, with M14 melanoma, in the assay on NCI-H23 lung and in the assay with RPMI-8226 leukemia was over 100 µM each time. The concentration for total growth inhibition (TGI) in the assay on SF-268 CNS, in the assay on SF-295 CNS, in the assay with TK-10 renal and in the assay on U251 CNS was over 100 µM each time.

In the case of `Nc1ncnc2c1sc1nc3ccccc3n12`, the TGI in the assay with ACHN renal, with CAKI-1 renal, in the assay with COLO 205 colon, in the assay with M14 melanoma, in the assay on NCI-H23 lung and in the assay on RPMI-8226 leukemia was over 100 µM each time. In addition, the TGI in the assay with SF-268 CNS, in the assay on SF-295 CNS, in the assay on TK-10 renal and with U251 CNS was over 100 µM in each case.

Take `CC(C)(C)OC(=O)NC(CCCCNC(=O)OCc1ccccc1)C(=O)NCCNc1ccc(NCCNC(=O)C(CCCCNC(=O)OCc2ccccc2)NC(=O)OC(C)(C)C)c2c1C(=O)c1ccccc1C2=O` (stereo not drawn): the TGI is over 100 µM in the assay with ACHN renal; over 100 µM with CAKI-1 renal; over 100 µM with COLO 205 colon; over 100 µM in the assay with M14 melanoma; over 100 µM with NCI-H23 lung; over 27.4 µM in the assay with RPMI-8226 leukemia. Besides, the concentration for total growth inhibition (TGI) in the assay with SF-268 CNS is over 64.6 µM; with SF-295 CNS, over 100 µM; in the assay with TK-10 renal, over 100 µM; in the assay with U251 CNS, 17.1 µM.

Turning to `COc1c(CC=C(C)C)c(O)c(C(CC(C)C)c2c(O)c3c(c(C(C)=O)c2O)OC(C(C)(C)O)C3)c(O)c1C(C)=O` (stereo not drawn), the TGI in the assay with ACHN renal is over 12.5 µM; in the assay on CAKI-1 renal it was over 12.5 µM; in the assay on COLO 205 colon, 8.38 µM; in the assay on M14 melanoma it was over 12.5 µM; in the assay with NCI-H23 lung it was 8.9 µM; with RPMI-8226 leukemia, 3.19 µM. Moreover, the TGI with SF-268 CNS and in the assay with SF-295 CNS was over 12.5 µM throughout.

Consider `O=C(O[C@@H](/C=C/c1ccccc1)P1(=O)N(Cc2ccccc2)[C@H]2CCCC[C@@H]2N1Cc1ccccc1)c1ccccc1`, for which the total growth inhibition concentration (TGI) with ACHN renal was 6.91 µM; in the assay on CAKI-1 renal, 11.5 µM; in the assay with COLO 205 colon, 3.17 µM; in the assay with M14 melanoma, over 100 µM; with NCI-H23 lung, 36 µM; in the assay on RPMI-8226 leukemia it was 7.31 µM. In addition, the TGI in the assay on SF-268 CNS is over 100 µM; in the assay with SF-295 CNS it was over 100 µM; with TK-10 renal, 37 µM; with U251 CNS, 11.1 µM.

`O=C(CSc1nc2ccc([N+](=O)[O-])cc2s1)c1ccc2ccccc2c1`: the total growth inhibition concentration (TGI) in the assay with ACHN renal, in the assay on CAKI-1 renal, in the assay with COLO 205 colon, in the assay on M14 melanoma, with NCI-H23 lung and with RPMI-8226 leukemia was over 100 µM each time. For the same molecule, the concentration for total growth inhibition (TGI) with SF-268 CNS, with SF-295 CNS, in the assay on TK-10 renal and with U251 CNS was over 100 µM each time.

For `COc1ccc(C2NC(=S)Nc3c2c(=O)oc2c3ccc3ccccc32)cc1` (stereo not drawn), the TGI in the assay with ACHN renal, in the assay with CAKI-1 renal, in the assay with COLO 205 colon, with M14 melanoma, in the assay on NCI-H23 lung and in the assay on RPMI-8226 leukemia was over 100 µM in each case. Also, the TGI with SF-268 CNS, with SF-295 CNS, in the assay with TK-10 renal and in the assay on U251 CNS was over 100 µM throughout.

On to `COCC1CCCN1c1ccc(C=N/C(C#N)=C(\N)C#N)cc1` (stereo not drawn), for which the GI50 is over 100 µM in the assay on COLO 205 colon; over 100 µM with M14 melanoma; over 100 µM in the assay with NCI-H23 lung; 67.8 µM with SF-268 CNS; over 100 µM in the assay with SF-295 CNS; 49.2 µM in the assay with TK-10 renal. Also, the GI50 with U251 CNS was 17.2 µM. The total growth inhibition concentration (TGI) in the assay on COLO 205 colon, in the assay with M14 melanoma, with NCI-H23 lung, in the assay on SF-268 CNS, in the assay with SF-295 CNS and with TK-10 renal was over 100 µM throughout. Moreover, the TGI with U251 CNS was over 100 µM.

On to `CCOC(=O)C(/C(=N/S(=O)(=O)c1cc(C)c(Cl)cc1[S-])[n+]1ccc(N(C)C)cc1)=C(/O)c1ccc([N+](=O)[O-])cc1`, for which the total growth inhibition concentration (TGI) in the assay with ACHN renal is 71.6 µM; in the assay on CAKI-1 renal, 99.7 µM; with COLO 205 colon, 90.2 µM; with M14 melanoma it was 96.6 µM; with RPMI-8226 leukemia it was 63.7 µM; in the assay on SF-268 CNS it was over 100 µM. Also, the figures for the TGI in the assay with SF-295 CNS, in the assay on TK-10 renal and in the assay on U251 CNS were 54.1 µM, 58.7 µM and over 100 µM, respectively.

In the case of `N#CC12Cc3cc4c(cc3-c3cccc(c31)CCN2C(=O)c1ccccc1)OCO4` (stereo not drawn), the concentration for total growth inhibition (TGI) in the assay on ACHN renal, in the assay on COLO 205 colon, in the assay on M14 melanoma, in the assay on NCI-H23 lung, with RPMI-8226 leukemia and with SF-268 CNS was over 100 µM each time. The TGI with SF-295 CNS, with TK-10 renal and with U251 CNS was over 100 µM throughout.

In the case of `Cc1ccccc1N=Nc1c(O)c(S(=O)(=O)O)cc2cc(S(=O)(=O)O)ccc12`, the total growth inhibition concentration (TGI) with ACHN renal, with CAKI-1 renal, in the assay on COLO 205 colon, in the assay on M14 melanoma, in the assay on NCI-H23 lung and in the assay on SF-268 CNS was over 100 µM each time. Besides, the TGI in the assay on SF-295 CNS, with TK-10 renal and in the assay on U251 CNS was over 100 µM throughout.

On to `COCCNCc1ccc(-c2cc3nccc(Oc4ccc(NC(=S)NC(=O)Cc5ccc(F)cc5)cc4F)c3s2)nc1`, for which the GI50 was 1.97 µM in the assay on ACHN renal; 2.02 µM in the assay with COLO 205 colon; 1.51 µM with NCI-H23 lung; 2.04 µM with RPMI-8226 leukemia; 1.88 µM in the assay with SF-268 CNS; 2.45 µM in the assay on TK-10 renal. Further, the GI50 in the assay on U251 CNS is 1.53 µM. Besides, the TGI in the assay with ACHN renal worked out at 4.54 µM; with COLO 205 colon, 4.3 µM; in the assay on NCI-H23 lung, 4.63 µM; with RPMI-8226 leukemia it was 5.13 µM; in the assay with SF-268 CNS it was 4.73 µM; in the assay on TK-10 renal it was 5.08 µM. The total growth inhibition concentration (TGI) with U251 CNS turned out to be 2.94 µM.

For `CCC(C)C1NC(=O)C(NC(=O)c2c3nc4c(C(=O)NC5C(=O)NC(C(C)CC)C(=O)N6CCCC6C(=O)N(C)CC(=O)N(C)C(C(C)C)C(=O)OC5C)ccc(C)c4oc-3c(C)c(=O)c2N)C(C)OC(=O)C(C(C)C)N(C)C(=O)CN(C)C(=O)C2CCCN2C1=O` (stereo not drawn) (I: TIP[Sar][NMeV] / II: TIP[Sar][NMeV]; ester I:1-I:C, II:1-II:C; linker I:N-II:N via Actinocin(1to9); configuration not given here), the TGI with CAKI-1 renal was 0.0861 µM; in the assay on COLO 205 colon it was 0.00309 µM; with M14 melanoma, 0.0272 µM; with NCI-H23 lung, 0.0168 µM; in the assay on RPMI-8226 leukemia, 0.0322 µM; in the assay with SF-268 CNS, 0.0586 µM. The TGI in the assay on TK-10 renal stood at 0.0755 µM; in the assay on U251 CNS it was 10.9 µM.

Regarding `O=c1ccc2nc3cc(Br)ccc3sc-2c1`, the concentration for total growth inhibition (TGI) in the assay on ACHN renal, with CAKI-1 renal, with COLO 205 colon, in the assay on M14 melanoma, with NCI-H23 lung and in the assay on SF-268 CNS was over 100 µM each time. For the same molecule, the concentration for total growth inhibition (TGI) in the assay with SF-295 CNS, with TK-10 renal and in the assay with U251 CNS was over 100 µM throughout.

With `Cn1c(=O)[nH]c2nncnc2c1=O`, the TGI in the assay on CAKI-1 renal is 46.5 µM; in the assay with COLO 205 colon, 501 µM; with NCI-H23 lung it was 420 µM; in the assay on RPMI-8226 leukemia it was 389 µM; with SF-268 CNS it was over 625 µM; in the assay on SF-295 CNS, 325 µM. The molecule also returned a concentration for total growth inhibition (TGI) in the assay with U251 CNS of 312 µM.

On to `OCc1cn(C(c2ccccc2)(c2ccccc2)c2ccccc2)cn1`, for which the TGI in the assay on ACHN renal, in the assay with CAKI-1 renal, in the assay with COLO 205 colon, with M14 melanoma, in the assay with NCI-H23 lung and in the assay on RPMI-8226 leukemia was over 100 µM throughout. For the same molecule, the figures for the concentration for total growth inhibition (TGI) in the assay on SF-295 CNS, in the assay with TK-10 renal and in the assay with U251 CNS were 89.7 µM, over 100 µM and over 100 µM, respectively.

With `CC(=O)OC1CC[C@@]2(C)C(=CC[C@@H]3[C@@H]2CC[C@]2(C)Nc4nn(S(C)(=O)=O)cc4C[C@@H]32)C1` (stereo partly drawn), the total growth inhibition concentration (TGI) in the assay on CAKI-1 renal is over 100 µM; with COLO 205 colon, over 100 µM; with M14 melanoma, 36.3 µM; with NCI-H23 lung, over 100 µM; in the assay on RPMI-8226 leukemia, over 100 µM; with SF-295 CNS, over 100 µM. The TGI in the assay on U251 CNS is over 100 µM.

On to `COc1ccc2nc3c(C(=O)NCCN(C)C)cccc3cc2c1`, for which the TGI with COLO 205 colon was 3.74 µM; in the assay with NCI-H23 lung, 5.09 µM; in the assay with RPMI-8226 leukemia, 6.23 µM; in the assay on SF-268 CNS, 12.1 µM; with SF-295 CNS, 6.2 µM; with U251 CNS, 14.2 µM.

As to `c1ccc(-c2nnn3c2NC2=C(CCCC2)C3c2ccccc2)cc1` (stereo not drawn), the TGI was 3.09 µM in the assay on ACHN renal; 38.8 µM in the assay on CAKI-1 renal; 30.2 µM in the assay on COLO 205 colon; 35.5 µM with M14 melanoma; 69.4 µM with NCI-H23 lung; 31.9 µM with RPMI-8226 leukemia. In addition, the total growth inhibition concentration (TGI) in the assay with SF-268 CNS came to 48.9 µM; with SF-295 CNS it was 49.7 µM; with U251 CNS it was 26 µM.
